Data: patent publication US8507686B2, “Substituted bicyclic methyl azetidines as sphingosine-1 phosphate receptors modulators” (Allergan, Inc., priority 2011, dated 2013)

Biological target: T1, human S1P1 receptor (Homo sapiens, UniProt P21453)
T1 construct: expressed in transfected cells; host or cells: cells stably expressing the S1P1 receptor; membranes used
Assay: GTP γ35S binding assay for S1P1 activity
Assay type: biochemical
Details: membranes of cells stably expressing the S1P1 receptor; agonist-induced GTP γ35S binding; read-out: EC50 at the S1P1 receptor from GTP γ35S
Experimental: Novel compounds were synthesized and tested for S1P1 activity using the GTP γ^35S binding assay. These compounds may be assessed for their ability to activate or block activation of the human S1P1 receptor in cells stably expressing the S1P1 receptor. […] binding was measured in the medium containing (mM) HEPES 25, pH 7.4, MgCl2 10, NaCl 100, dithitothreitol 0.5, digitonin 0.003%, 0.2 nM GTP γ^35S, and 5 μg membrane protein in a volume of 150 μl. Test compounds were included in the concentration range from 0.08 to 5,000 nM unless indicated otherwise. Membranes were incubated with 100 μM 5′-adenylylimmidodiphosphate for 30 min, and subsequently with 10 μM GDP for 10 min on ice. Drug solutions and membrane were mixed, and then reactions were initiated by adding GTP γ^35 S and continued for 30 min at 25° C. Reaction mixtures were filtered over Whatman GF/B filters under vacuum, and washed three times with 3 mL of ice-cold buffer (HEPES 25, pH7.4, MgCl2 10 and NaCl 100). Filters were dried and mixed with scintillant, and counted for ^35S activity using a β-counter. Agonist-induced GTP γ^35 S binding was obtained by subtracting that in the absence of agonist. Binding data were analyzed using a non-linear regression method. In case of antagonist assay, the reaction mixture contained 10 nM […] in the presence of test antagonist at concentrations ranging from 0.08 to 5000 nM.

T1 sequence (P21453 whole entry): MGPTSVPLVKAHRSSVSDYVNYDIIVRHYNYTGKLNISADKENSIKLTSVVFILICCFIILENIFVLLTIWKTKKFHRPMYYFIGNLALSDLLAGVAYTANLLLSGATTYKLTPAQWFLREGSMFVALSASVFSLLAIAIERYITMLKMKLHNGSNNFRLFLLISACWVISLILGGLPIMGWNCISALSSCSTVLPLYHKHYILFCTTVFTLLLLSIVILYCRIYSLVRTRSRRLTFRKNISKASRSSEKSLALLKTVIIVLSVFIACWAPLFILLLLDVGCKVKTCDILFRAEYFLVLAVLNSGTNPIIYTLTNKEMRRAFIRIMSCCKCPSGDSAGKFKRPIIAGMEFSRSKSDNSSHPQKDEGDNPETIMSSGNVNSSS

O=C(O)C1CN(Cc2ccc(C#CCCCCc3ccccc3)c3cccnc23)C1 [Compound 1]
EC50: 0.39 µM
